Laboratory results: patent US10674699B2, “Endophyte enhanced seedlings with increased pest tolerance” (priority 2006, dated 2020)

Key:
[1] = test system: Lambdina fiscellaria (hemlock looper) larvae; assay: Dietary rugulosin in artificial diet, hemlock looper larvae; type: in vivo; details: 1 week
Method: The toxicity of an endophyte toxin on a pest such as hemlock looper is optionally tested according to the following method. The toxin to be tested is incorporated into an artificial diet suitable for pest growth. Artificial diet is prepared in individual cups, containing toxin concentrations of 5 micromolar, 10 micromolar, 25 micromolar, 50 micromolar and 100 micromolar. One 3rd instar insect is added to each of 75 cups per dilution and incubated in a growth chamber under appropriate conditions such as at 22 C, 55% relative humidity with 16 h light/day. After 4 days, the insects are frozen, weighed and their head capsules measured. A reduction in head capsule size (eg. width) or weight compared to a control sample is indicative of the presence of a toxin. One skilled in the art would understand that this method can be modified to test different concentrations of toxin and that the conditions can be modified to test a variety of different pests.
Lambdina fiscellaria eggs (hemlock looper) were purchased from Forestry Canada in three lots. The eggs were incubated at room temperature for 10 d until larvae emerged. Larvae from each batch emerged within two days of each other and were immediately put on diet in cups as above. […] After 1 week on the test diets, the larvae were frozen, weighed and head capsule width determined.

[2] = test system: Zeiraphera canadensis larvae (spruce budmoth); assay: Dietary rugulosin in artificial diet, wild collected spruce budmoth larvae; type: in vivo
Method: Zeiraphera canadensis larvae (spruce budmoth) were collected from the wild near Sussex in mid June. They were immediately put in test vials and tested at rugulosin concentrations of 10, 50, 100 and 150 μM (75 per concentration). After seven days, surviving larvae were frozen and measured.

mice = details: ip in mice; Ueno et al. 1971; cited from earlier work
[3] = test system: Gram positive and negative bacteria; details: reported by many authors, e.g. Stark et al. 1978; cited from earlier work
spruce budworm larvae = details: Miller et al. 2002; cited from earlier work

With `Cc1cc(O)c2c(c1)C(=O)[C@]13C(=C2O)C(=O)[C@@H]2[C@H](O)[C@H]1[C@@H]1[C@@H](O)[C@H]3C(=O)C3=C(O)c4c(O)cc(C)cc4C(=O)[C@]312` [rugulosin] the “dietary rugulosin concentration with significantly reduced head capsule” value [1] was 150 µM, the “larval weights, controls vs treatment groups by ANOVA (LSD, Tukey)” value ([2]; 10, 50, 100 and 150 μM rugulosin, seven days) was “not significantly different” and the “effect of rugulosin on wild collected larvae relative to the other insect species” value ([2]; diet) was “same order of magnitude”. The “dietary concentration reducing body weight and/or affecting instar development” value ([2]; in vitro, diet) was about 50 µM, the LD50 (mice) was 55 mg kg^−1 BW and the antibiotic activity [3] was “antibiotic”. For the same compound, the “toxicity to C. fumiferana larvae in needles” value (spruce budworm larvae) was “toxic”.
